# Measured values: US10660877B2 (BRISTOL-MYERS SQUIBB COMPANY, priority 2016, dated 2020)
# Where two headings read alike, the source gives them in different places.
# Experiments:
# [1] = biological target: human TLR7 (Homo sapiens (Human), UniProt Q9NYK1); experiment: TLR7 inhibition reporter assay (HEK-Blue cells, SEAP reporter, gardiquimod stimulation); assay type: cell-based; settings: HEK-Blue cells overexpressing human TLR7, gardiquimod 7.5 μM
# Experimental: TLR7/8/9 Inhibition Reporter Assays
# Briefly, cells are seeded into Greiner 384 well plates (15000 cells per well for TLR7, 20,000 for TLR8 and 25,000 for TLR9) and then treated with test compounds in DMSO to yield a final dose response concentration range of 0.05 nM-50 μM. […] After a 22 hour incubation at 37° C., 5% CO2, SEAP levels are determined with the addition of HEK-Blue™ Detection reagent (Invivogen), a cell culture medium that allows for detection of SEAP, according to manufacturer's specifications. The percent inhibition is determined as the % reduction in the HEK-Blue signal present in wells treated with agonist plus DMSO alone compared to wells treated with a known inhibitor.
# [2] = biological target: human TLR8 (Homo sapiens (Human), UniProt Q9NR97); experiment: TLR8 inhibition reporter assay (HEK-Blue cells, SEAP reporter, R848 stimulation);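 further: compounds tested from 0.05 nM to 50 µM, 22 h at 37 °C, SEAP measured with HEK-Blue Detection, inhibition relative to agonist plus DMSO versus a known inhibitor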
# Sequence of human TLR8 (Q9NR97 27-1041): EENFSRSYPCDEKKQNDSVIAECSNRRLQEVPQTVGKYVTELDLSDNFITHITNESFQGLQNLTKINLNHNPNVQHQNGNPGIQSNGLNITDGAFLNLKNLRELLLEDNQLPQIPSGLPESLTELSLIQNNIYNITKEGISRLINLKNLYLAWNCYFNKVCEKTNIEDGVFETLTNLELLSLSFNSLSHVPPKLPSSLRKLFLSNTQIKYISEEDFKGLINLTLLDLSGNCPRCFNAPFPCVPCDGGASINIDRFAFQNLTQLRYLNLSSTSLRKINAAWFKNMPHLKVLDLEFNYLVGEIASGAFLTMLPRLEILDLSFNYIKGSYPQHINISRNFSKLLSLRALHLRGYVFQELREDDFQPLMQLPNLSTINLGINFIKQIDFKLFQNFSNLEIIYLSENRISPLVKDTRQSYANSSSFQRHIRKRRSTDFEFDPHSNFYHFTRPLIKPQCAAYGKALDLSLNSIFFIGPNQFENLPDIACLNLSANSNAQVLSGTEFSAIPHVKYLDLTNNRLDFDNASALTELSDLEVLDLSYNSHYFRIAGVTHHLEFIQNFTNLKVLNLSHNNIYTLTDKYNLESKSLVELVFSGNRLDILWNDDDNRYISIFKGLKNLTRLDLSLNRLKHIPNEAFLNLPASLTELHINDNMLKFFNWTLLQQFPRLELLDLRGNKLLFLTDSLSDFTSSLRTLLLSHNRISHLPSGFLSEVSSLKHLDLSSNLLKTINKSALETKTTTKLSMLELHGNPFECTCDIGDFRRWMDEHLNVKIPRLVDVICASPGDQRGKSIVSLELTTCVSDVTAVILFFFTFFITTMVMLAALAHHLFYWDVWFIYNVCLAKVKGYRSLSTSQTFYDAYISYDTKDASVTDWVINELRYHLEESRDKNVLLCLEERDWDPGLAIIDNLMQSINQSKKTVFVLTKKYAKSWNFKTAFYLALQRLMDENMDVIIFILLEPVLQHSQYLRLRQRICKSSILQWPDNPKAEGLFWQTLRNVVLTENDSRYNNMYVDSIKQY
# [3] = biological target: human TLR9 (Homo sapiens (Human), UniProt Q9NR96); experiment: TLR9 inhibition reporter assay (HEK-Blue cells, SEAP reporter, ODN2006 stimulation);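 further: compounds tested over 0.05 nM to 50 µM, 22 h incubation, inhibition taken as SEAP signal drop from agonist plus DMSO wells toward a known inhibitor control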
# Sequence of human TLR9 (Q9NR96 26-1032): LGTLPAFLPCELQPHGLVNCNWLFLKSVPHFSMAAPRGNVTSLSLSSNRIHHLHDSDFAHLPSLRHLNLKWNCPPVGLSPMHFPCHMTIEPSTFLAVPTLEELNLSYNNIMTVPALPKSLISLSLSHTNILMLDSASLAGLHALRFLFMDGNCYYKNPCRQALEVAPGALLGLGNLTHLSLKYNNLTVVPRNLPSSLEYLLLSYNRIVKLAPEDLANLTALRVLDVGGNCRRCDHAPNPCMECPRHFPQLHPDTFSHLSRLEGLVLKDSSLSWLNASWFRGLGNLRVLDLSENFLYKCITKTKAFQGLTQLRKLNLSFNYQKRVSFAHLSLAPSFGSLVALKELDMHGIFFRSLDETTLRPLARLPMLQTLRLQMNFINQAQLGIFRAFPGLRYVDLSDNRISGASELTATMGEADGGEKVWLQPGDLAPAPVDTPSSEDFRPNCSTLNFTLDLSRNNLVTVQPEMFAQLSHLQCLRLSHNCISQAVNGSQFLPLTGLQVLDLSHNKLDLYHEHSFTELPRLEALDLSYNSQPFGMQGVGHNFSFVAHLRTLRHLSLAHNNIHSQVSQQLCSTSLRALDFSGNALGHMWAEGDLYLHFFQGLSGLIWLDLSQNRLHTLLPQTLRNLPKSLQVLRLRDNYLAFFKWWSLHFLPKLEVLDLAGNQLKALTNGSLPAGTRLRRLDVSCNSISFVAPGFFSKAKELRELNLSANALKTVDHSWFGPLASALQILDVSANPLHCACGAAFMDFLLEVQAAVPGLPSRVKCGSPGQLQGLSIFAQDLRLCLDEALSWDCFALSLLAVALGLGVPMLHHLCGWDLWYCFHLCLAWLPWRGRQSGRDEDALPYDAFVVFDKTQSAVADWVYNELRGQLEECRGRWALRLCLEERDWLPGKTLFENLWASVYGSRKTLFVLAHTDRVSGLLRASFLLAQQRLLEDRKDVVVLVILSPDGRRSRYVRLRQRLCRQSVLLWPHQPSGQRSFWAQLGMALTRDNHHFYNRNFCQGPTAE
# [4] = read-out: TLR8 IC50, HEK-Blue cells overexpressing human TLR8, R848 15.9 μM
# [5] = read-out: TLR9 IC50, HEK-Blue cells overexpressing human TLR9, ODN2006 5 nM
# [6] = TLR8 IC50, HEK-Blue cells overexpressing human TLR8, R848 15.9 μM
# [7] = TLR9 IC50, HEK-Blue cells overexpressing human TLR9, ODN2006 5 nM
# Sequence of human TLR7 (Q9NYK1 27-1049): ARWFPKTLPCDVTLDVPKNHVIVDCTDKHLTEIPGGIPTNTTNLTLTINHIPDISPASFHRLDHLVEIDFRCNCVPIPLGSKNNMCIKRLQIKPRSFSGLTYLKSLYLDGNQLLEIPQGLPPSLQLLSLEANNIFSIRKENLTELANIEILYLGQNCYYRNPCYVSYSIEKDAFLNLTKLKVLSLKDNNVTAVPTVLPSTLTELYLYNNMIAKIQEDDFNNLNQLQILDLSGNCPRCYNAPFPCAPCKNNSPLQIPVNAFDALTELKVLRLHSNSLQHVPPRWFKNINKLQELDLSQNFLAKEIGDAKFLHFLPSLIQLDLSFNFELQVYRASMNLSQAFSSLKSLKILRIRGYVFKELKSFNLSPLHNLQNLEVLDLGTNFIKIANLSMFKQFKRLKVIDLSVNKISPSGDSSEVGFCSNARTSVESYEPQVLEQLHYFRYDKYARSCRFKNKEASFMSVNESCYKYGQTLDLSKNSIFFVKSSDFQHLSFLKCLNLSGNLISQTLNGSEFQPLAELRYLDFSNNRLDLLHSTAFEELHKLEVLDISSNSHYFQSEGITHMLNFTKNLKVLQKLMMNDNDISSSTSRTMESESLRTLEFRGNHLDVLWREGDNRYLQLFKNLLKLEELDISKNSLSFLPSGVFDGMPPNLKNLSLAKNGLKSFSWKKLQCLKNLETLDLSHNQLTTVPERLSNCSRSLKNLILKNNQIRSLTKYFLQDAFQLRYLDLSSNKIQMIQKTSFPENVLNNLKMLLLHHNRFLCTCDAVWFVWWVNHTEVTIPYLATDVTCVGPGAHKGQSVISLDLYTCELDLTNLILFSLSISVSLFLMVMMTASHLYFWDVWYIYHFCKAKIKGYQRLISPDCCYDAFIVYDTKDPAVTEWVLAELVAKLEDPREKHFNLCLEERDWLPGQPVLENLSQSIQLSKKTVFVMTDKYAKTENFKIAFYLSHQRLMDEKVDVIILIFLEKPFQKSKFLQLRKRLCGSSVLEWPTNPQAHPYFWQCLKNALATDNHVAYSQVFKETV
SMILES,IC50 [1] [nM],"IC50 [2, 4] [nM]","IC50 [3, 5] [nM]","IC50 [2, 6] [nM]","IC50 [3, 7] [nM]"
"Cc1cc(-c2[nH]c3ccc(C4CCN(C(=O)c5c(C)n[nH]c5C)CC4)cc3c2C(C)C)cc(C)n1 [Example 121, (3,5-dimethyl-1H-pyrazol-4-yl)(4-(2-(2,6-dimethylpyridin-4-yl)-3-isopropyl-1H-indol-5-yl)piperidin-1-yl)methanone]",30,98,10700,,
"Cc1cc(-c2[nH]c3ccc(C4CCN(CC(C)(C)C(=O)O)CC4)cc3c2C(C)C)cc(C)n1 [Example 321, 3-(4-(2-(2,6-dimethylpyridin-4-yl)-3-isopropyl-1H-indol-5-yl)piperidin-1-yl)-2,2-dimethylpropanoic acid]",17.1,68.5,> 50000,,
"CNCC(=O)N1CCC(c2ccc3[nH]c(-c4cc(C)nc(C5CC5)c4)c(C(C)C)c3c2)CC1 [Example 508, 1-(4-(2-(2-cyclopropyl-6-methylpyridin-4-yl)-3-isopropyl-1H-indol-5-yl)piperidin-1-yl)-2-(methylamino)ethan-1-one]",8.8,57.9,592,,
"CCc1c(-c2ccnc(C)c2)[nH]c2ccc(C3CCN(CCCN(C)C)CC3)cc12 [Example 673, 3-(4-(3-ethyl-2-(2-methylpyridin-4-yl)-1H-indol-5-yl)piperidin-1-yl)-N,N-dimethylpropan-1-amine]",70.5,23.1,287,,
"CCOCCNC(=O)CN1CCC(c2ccc3[nH]c(-c4cc(C)nc(C)c4)c(C(C)C)c3c2)CC1 [Example 240, 2-(4-(2-(2,6-dimethylpyridin-4-yl)-3-isopropyl-1H-indol-5-yl)piperidin-1-yl)-N-(2-ethoxyethyl)acetamide]",8.3,,,7.9,1090
"Cc1cc(-c2[nH]c3ccc(C4CCN(C(=O)C5CCNC5)CC4)cc3c2C(C)C)cc(C)n1 (single isomer, unassigned) [Example 182, (4-(2-(2,6-dimethylpyridin-4-yl)-3-isopropyl-1H-indol-5-yl)piperidin-1-yl)(pyrrolidin-3-yl) methanone]",1.3,,,12,151
"COc1ncc(CN2CCC(c3ccc4[nH]c(-c5ccnc(C)c5F)c(C(C)C)c4c3)CC2)cn1 [Example 731, 2-(3-fluoro-2-methylpyridin-4-yl)-3-isopropyl-5-(1-((2-methoxypyrimidin-5-yl)methyl)piperidin-4-yl)-1H-indole]",8.9,2.7,1310,,
"Cc1cc(-c2[nH]c3ccc(C4CCN(CC5(C)COC5)CC4)cc3c2C(C)C)cc(C)n1 [Example 475, 2-(2,6-dimethylpyridin-4-yl)-3-isopropyl-5-(1-((3-methyloxetan-3-yl)methyl)piperidin-4-yl)-1H-indole]",4.1,2.2,335,,
"Cc1cc(-c2[nH]c3ccc(C4CCN(CC(F)(F)F)CC4)cc3c2C(C)C)ccn1 [Example 658, 3-isopropyl-2-(2-methylpyridin-4-yl)-5-(1-(2,2,2-trifluoroethyl)piperidin-4-yl)-1H-indole]",434,645,7290,,
"Cc1cc(-c2[nH]c3ccc(C4CCN(C(=O)CN5CCC[C@H]5CO)CC4)cc3c2C(C)C)cc(C)n1 [Example 381, (S)-1-(4-(2-(2,6-dimethylpyridin-4-yl)-3-isopropyl-1H-indol-5-yl)piperidin-1-yl)-2-(2-(hydroxymethyl)pyrrolidin-1-yl)ethan-1-one]",2.2,9.8,348,,
"Cc1cc(-c2[nH]c3ccc(C4CCN(C(=O)CN(C)C(C)(C)C)CC4)cc3c2C(C)C)cc(C)n1 [Example 359, 2-(tert-butyl (methyl)amino)-1-(4-(2-(2,6-dimethylpyridin-4-yl)-3-isopropyl-1H-indol-5-yl)piperidin-1-yl)ethan-1-one]",7.1,11.7,826,,
"Cc1cc(-c2[nH]c3ccc(C4CCN(CC5CCCCC5)CC4)cc3c2C(C)C)cc(C)n1 [Example 328, 5-(1-(cyclohexylmethyl)piperidin-4-yl)-2-(2,6-dimethylpyridin-4-yl)-3-isopropyl-1H-indole]",49.8,77.1,7220,,
"Cc1cc(-c2[nH]c3ccc(C4CCN(S(=O)(=O)CC(C)C)CC4)cc3c2C(C)C)ccn1 [Example 548, 5-(1-(isobutylsulfonyl)piperidin-4-yl)-3-isopropyl-2-(2-methylpyridin-4-yl)-1H-indole]",336,700,> 50000,,
"Cc1cc(-c2[nH]c3ccc(C4CCN(CC(=O)N5C(C)CCC5C)CC4)cc3c2C(C)C)cc(C)n1 (stereo not drawn) [Example 261, 2-(4-(2-(2,6-dimethylpyridin-4-yl)-3-isopropyl-1H-indol-5-yl)piperidin-1-yl)-1-(2,5-dimethylpyrrolidin-1-yl)ethan-1-one]",5.7,22.3,451,,
"COc1cc(-c2[nH]c3ccc(C4CCNCC4)cc3c2C(C)C)c(F)cn1 [Example 47, 2-(5-fluoro-2-methoxypyridin-4-yl)-3-isopropyl-5-(piperidin-4-yl)-1H-indole]",9,36.2,3500,,

# More lines, in order of falling IC50 [1], values ahead:
IC50 [1] [nM],"IC50 [2, 4] [nM]","IC50 [3, 5] [nM]","IC50 [2, 6] [nM]","IC50 [3, 7] [nM]",SMILES
56.5,186,40900,,,"Cc1cc(-c2[nH]c3ccc(C4CCN(C(=O)C5CC5)CC4)cc3c2C(C)C)ccn1 [Example 606, cyclopropyl(4-(3-isopropyl-2-(2-methylpyridin-4-yl)-1H-indol-5-yl)piperidin-1-yl)methanone]"
45.7,16.2,> 50000,,,"Cc1cc(-c2[nH]c3ccc(C4CCN(CC(F)F)CC4)cc3c2C(C)C)c(F)cn1 [Example 649, 5-(1-(2,2-difluoroethyl)piperidin-4-yl)-2-(5-fluoro-2-methylpyridin-4-yl)-3-isopropyl-1H-indole]"
19.8,39.7,362,,,"Cc1cc(-c2[nH]c3ccc(C4CCNCC4)cc3c2C(C)C)cc(N)n1 [Example 12, 4-(3-isopropyl-5-(piperidin-4-yl)-1H-indol-2-yl)-6-methylpyridin-2-amine]"
16.1,90,419,,,"Cc1nccc(-c2[nH]c3ccc(C4CCNCC4)cc3c2C(C)C)c1N [Example 13, 4-(3-isopropyl-5-(piperidin-4-yl)-1H-indol-2-yl)-2-methylpyridin-3-amine]"
16,95.4,677,,,"CC(C)c1c(-c2cc(C3CC3)ncc2F)[nH]c2ccc(C3CCNCC3)cc12 [Example 481, 2-(2-cyclopropyl-5-fluoropyridin-4-yl)-3-isopropyl-5-(piperidin-4-yl)-1H-indole]"
13.4,43.6,710,,,"CCC(C)CN(CCO)C(=O)CN1CCC(c2ccc3[nH]c(-c4cc(C)nc(C)c4)c(C(C)C)c3c2)CC1 (stereo not drawn) [Example 297, 2-(4-(2-(2,6-dimethylpyridin-4-yl)-3-isopropyl-1H-indol-5-yl)piperidin-1-yl)-N-(2-hydroxyethyl)-N-(2-methylbutyl)acetamide]"
7.2,33.9,3430,,,"Cc1cnc(F)cc1-c1[nH]c2ccc(C3CCNCC3)cc2c1C(C)C [Example 28, 2-(2-fluoro-5-methylpyridin-4-yl)-3-isopropyl-5-(piperidin-4-yl)-1H-indole]"
